Like-named read-outs stand apart in the source and are kept apart here. No end group written: not given here.
Experiments:
Type in all cases: cell-based, Human
in vitro = conditions: human
Experimental: (§1) Experimental design: The experimental design (see FIG. 1) was to seed the HCC38 breast cancer cell line (BCCL) with the p1978 pep-tide in order to determine the effects of the peptide on cell growth. The HCC38 cell line was chosen because of its triple negative receptor status. […] They are more likely to recur than other subtypes of breast cancer.
(§2) The 184B5 (normal breast tissue cells) were seeded to serve as a negative control while the AU565 BCCL, a cell line with a positive Her2/neu and p53 receptor status, was inoculated to serve as a positive control. In the initial phase, treatment cell lines were treated with 8.26 μg/ml of p1978. The con-centration corresponds closely to the average SMR3B (the parent protein of the p1978 peptide), concentration, plus one standard deviation found in healthy breast tissues. A second experiment was performed doubling the concentration of 1978 to 16.52 μg/ml. FIG. 1 represents a schematic of the design used for the study.
(§3) Corresponding unseeded cell lines served as controls. The controls were treated with a placebo containing 1.0 ml of sterile PBS (for cell culture). An expanded dose-response experiment was not performed due to limited resources. The experiment ended 48 hours after seeding. The outcome variables of this study were total cell count, live cell count and percent viability.
(§4) Cell lines: Human breast cell lines HCC38 (HCC38 BL (ATCC® CRL-2346™), AU565 (ATCC® CRL2351™) and 184B5 (ATCC® CRL-8799™) were purchased from the American Type Culture Collection. Cell line descriptions are summarized in Table 1.
(§5) Cell growth procedures: The aforementioned cell lines were thawed in a 37.0 water bath with gentle agitation. The vials were decontaminated and the cells were added drop wise to 9 ml of their prospective culture media while gently mixing. The cell suspension was centrifuged at 1,000 rpm for five minutes. The supernatant was carefully removed and the cell pellet was resuspended in 5.0 ml of media. Each cell line was checked for viability using a hemocytometer and a cell count/ml was calculated. Nine plates were seeded of each cell line at a total of 1.0×10^6 cells/100 mm plates. Once the plates reached 30% confluency, nine plates of each cell line were treated with 8.26 μg/ml (4.95 μM) of p1978 peptide and a set of nine control plates were treated with 1.0 ml of phosphate buffered saline (PBS). They were incubated and harvested by trypsinization in 48 hours. The cells from each plate were counted for the total number of cells and were assessed for viability using the trypan blue exclusion test of cell viability. The same procedures were repeated for the higher 16.52 ug/ml (9.88 uM) dose.
(§6) Statistics: Data was tabulated using SPSS statistical software. The outcome variables of this study were total cell count, live cell count and percent viability. To assess these variables, descriptive statistics were employed to compare p1978 treated cells relative to the control cells. The approach consisted mainly of bar charts, mean cell counts and mean percentages. The cellular growth rate was determined by subtracting the resultant or final cell count from its baseline value. The difference was divided by 48 hours the growing time for the cells. The results were expressed in cells/hour.
(§7) A homoscedastic univariate t-test was computed for differences between the treated and the control groups. The arithmetic mean value of the control group was used as the “cut-point” value. The alpha level was p<0.05.

[1] = system: 184B5 cell line (normal breast tissue cells); assay: in vitro
Experimental: as §1, §2, §3, §4, §5, §6, §7

[2] = system: AU565 breast cancer cell line (Her2/neu and p53 positive)
Experimental: as §1, §2, §3, §4, §5, §6, §7

[3] = system: HCC38 breast cancer cell line (triple negative); assay: Cell growth: total and live cell count, trypan blue exclusion viability, 48 hours after seeding with p1978; parameters: key to Total growth rate, Treated / Live growth rate, Treated: N.G. = Negative Growth
Experimental: as §1, §2, §3, §4, §5, §6, §7

[4] = 184B5, 8.26 ug/ml p1978, 48 hours
[5] = 184B5, 8.26 μg/ml p1978, over 48 hours
[6] = 184B5, 16.52 ug/ml p1978, 48 hours
[7] = 184B5, 16.52 μg/ml p1978, 48 hours
[8] = 184B5, 16.52 μg/ml p1978, over 48 hours
[9] = AU565, 8.26 ug/ml p1978, 48 hours
[10] = AU565, 8.26 μg/ml p1978, over 48 hours
[11] = AU565, 16.52 μg/ml p1978, 48 hours
[12] = AU565, 16.52 μg/ml p1978, 48 hours, footnote: * represents 10^5
[13] = AU565, 16.52 μg/ml p1978, over 48 hours
[14] = HCC38, 8.26 μg/ml p1978, over 48 hours
[15] = HCC38, 16.52 μg/ml p1978, 48 hours
[16] = HCC38, 16.52 μg/ml p1978, over 48 hours

## PRGPYPPGPLAPPQ [p1978, PRGPYPPGPLAPPQ]
In vitro
  viability at 48 hours, 8.26 μg/ml: 91%
  viability at 48 hours, 16.52 μg/ml: 95 to 98%
[1]; 184B5, 8.26 ug/ml p1978
  difference in growth rate between the treated and the controls: almost negligible difference
[1]; [4]
  higher living cell count for the treated cells as compared to the control: 3.5%
  higher total cell count for the treated cells as compared to the control: 7.5%
[1]; [5]
  Live growth rate, Treated: 0.59 10^4 cells/hour
  Total growth rate, Treated: 1.11 10^4 cells/hour
[1]; 184B5, 16.52 ug/ml p1978
  effect on cell viability or growth rate: no effect
[1]; [6]
  increase in the living cell count for the treated cells as compared to the control: 63.7%
  increase in the total cell count for the treated cells as compared to the control: 22.4%
[1]; [7]
  % Live, Treated: 98%
  Live × 10^6 (mean cell count with standard deviation), Treated: 4.82 (±0.75) × 10^6
  Live × 10^6, Treated - Baseline: 2.57 × 10^6
  Live × 10^6, Treated - Control: 1.00 × 10^6
  Total × 10^6 (mean cell count with standard deviation), Treated: 4.91 (±0.63) × 10^6
  Total × 10^6, Treated - Baseline: 2.62 × 10^6
  Total × 10^6, Treated - Control: 0.90 × 10^6
[1]; [8]
  Live growth rate, Treated: 2.77 10^4 cells/hour
  Total growth rate, Treated: 7.83 10^4 cells/hour
[2]; [9]
  live cell count higher than control group: 11.7%
  total cell count higher than control group: 31.5%
[2]; [10]
  Live growth rate, Treated: 0.77 10^4 cells/hour
  Total growth rate, Treated: 1.38 10^4 cells/hour
[2]; AU565, 16.52 ug/ml p1978
  knockdown effect on cell count: No knockdown effect
[2]; AU565, 16.52 ug/ml p1978, 48 hours
  increase in living cell count: 23.1%
[2]; [11]
  % Live, Treated: 75%
  Live × 10^6 (mean cell count with standard deviation), Treated: 1.60 (±0.42) × 10^6
  Live × 10^6, Treated - Control: 0.30 × 10^6
  Total × 10^6 (mean cell count with standard deviation), Treated: 2.14 (±0.50) × 10^6
  Total × 10^6, Treated - Control: 0.27 × 10^6
[2]; [12]
  Live, Treated - Baseline: 0.24* 10^5
  Total, Treated - Baseline: 0.24* 10^5
[2]; [13]
  Live growth rate, Treated: 0.50 10^4 cells/hour
  Total growth rate, Treated: 0.50 10^4 cells/hour
[2]; human, 48 hours, 8.26 ug/ml
  percent viability, treated: 61%
[3]; HCC38, 8.26 ug/ml p1978, 48 hours
  reduction of total cell count versus control: 20.8%
[3]; HCC38, 8.26 ug/ml p1978, 48 hours, t=−3.25, p 0.08
  reduction of living cell count versus control: 33.2%
[3]; [14]
  Live growth rate, Treated: N.G.
  Total growth rate, Treated: N.G.
[3]; HCC38, 16.52 ug/ml p1978
  growth rate difference, treated versus control: −38%
[3]; HCC38, 16.52 ug/ml p1978, 48 hours
  average total number of cells higher in control than in treated (knockdown effect): 22.4%
[3]; [15]
  % Live, Treated: 92%
  Live × 10^6 (mean cell count with standard deviation), Treated: 1.87 (±0.43) × 10^6
  Live × 10^6, Treated - Baseline: 1.10 × 10^6
  Live × 10^6, Treated - Control: −0.67 × 10^6
  Total × 10^6 (mean cell count with standard deviation), Treated: 2.03 (±0.62) × 10^6
  Total × 10^6, Treated - Baseline: 1.03 × 10^6
  Total × 10^6, Treated - Control: −0.61 × 10^6
[3]; HCC38, 16.52 ug/ml p1978, 48 hours, t=−3.08, p<0.05
  decrease in the number of living cells as compared to the control: 37.9%
[3]; [16]
  Live growth rate, Treated: 2.29 10^4 cells/hour
  Total growth rate, Treated: 2.16 10^4 cells/hour
